The results in this text go back to patent publication US20090118288A1, “N-Benzyl-Morpholine Derivatives as Modulators of the Chemokine Receptor” (ASTRAZENECA AB, priority 2005, published 2009).

The target in one assay is T1, human recombinant CCR3 receptors (Homo sapiens, UniProt P51677).
T1 construct: expressed in transfected cells
T1 sequence (P51677 1-355): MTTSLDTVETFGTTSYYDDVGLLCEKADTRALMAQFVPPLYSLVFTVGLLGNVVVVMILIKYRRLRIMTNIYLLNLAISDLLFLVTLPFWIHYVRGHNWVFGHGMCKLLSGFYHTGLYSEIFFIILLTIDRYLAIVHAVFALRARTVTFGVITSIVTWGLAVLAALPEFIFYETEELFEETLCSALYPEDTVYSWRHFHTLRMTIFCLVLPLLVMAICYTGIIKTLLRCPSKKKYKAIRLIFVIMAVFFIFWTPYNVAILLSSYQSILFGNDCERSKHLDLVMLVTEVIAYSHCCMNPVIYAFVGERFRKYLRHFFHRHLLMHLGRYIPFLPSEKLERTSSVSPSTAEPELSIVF
As to the kind of experiment: Compound affinity at human recombinant CCR3 receptors by radioligand competition on CHO-K1 cell membranes. Format: binding. The settings on record: competition of 2 nM [3H]-4-(2,4-dichloro-3-methylphenoxy)-1'-[4-(methylsulfonyl)benzoyl]-1,4'-bipiperidine, 2 h at 37° C., mean of minimum 2 experiments, Cheng-Prussof correction of pIC50. As to the method:
Determination of Compound Affinity at Human Recombinant CCR3 Receptors Assessed by Competition of [^3H]-4-(2,4-dichloro-3-methylphenoxy)-1′-[4-(methylsulfonyl)benzoyl]-1,4′-bipiperidine for CHO-K1 Cell Membranes In Vitro
Membranes, prepared from CHO-K1 cells stably expressing recombinant human CCR3, suspended in assay buffer (50 mM Tris-Base, pH 7.4; containing sodium chloride (100 mM) and magnesium chloride (2 mM)) were incubated in the presence of 2 nM [^3H]-4-(2,4-dichloro-3-methylphenoxy)-1′-[4-(methylsulfonyl)benzoyl]-1,4′-bipiperidine, along with vehicle (1% (v/v) DMSO), 4-(4-chloro-3-methylphenoxy)-1′-[2-(methylsulfonyl)benzoyl]-1,4′-bipiperidine (to define non-specific binding) or test compound for 2 h at 37° C. in round bottomed 96-well plates. The plates were then filtered onto GF/B filter plates, pre-soaked for 1 hour in plate-coating solution (0.3% (w/v) polyethylenimine, 0.2% (w/v) BSA in de-ionised water), using a 96-well plate Tomtec cell harvester. Four washes (250 μL) with wash buffer (50 mM Tris-Base, pH 7.4 containing sodium chloride (500 mM) and magnesium chloride (2 mM)) were performed at 4° C. to remove unbound radioactivity. Plates were dried and MicroScint-O (50 μL) was added to each well. The plates were sealed (TopSeal A) and filter-bound radioactivity was measured with a scintillation counter (TopCount, Packard BioScience) using a 1 minute counting protocol.
Specific binding was determined from values of the control wells minus the values for the NSB wells for each assay plate. pIC50 values were calculated using a four parameter logistic fit (where pIC50 is defined as the negative logarithm of the concentration of compound required for 50% reduction in specific [^3H]-4-(2,4-dichloro-3-methylphenoxy)-1′-[4-(methylsulfonyl)benzoyl]-1,4′-bipiperidine binding). Data were presented as mean pKi values (calculated by applying a Cheng-Prussof correction to pIC50 values) from a minimum of 2 separate experiments.
(In general: In a radioligand displacement assay an active substance lowers the binding of a labelled ligand.)
For the molecule “2-Amino-6-({[4-(3,4-dichloro-benzyl)-morpholin-2-ylmethyl]-carbamoyl}-methylsulfanyl)-5-fluoro-nicotinic acid [Example 29A]”, the “CCR3 pKi” value is given as 9.4.

Staying with this assay, now noted: competition of 2 nM [3H]-4-(2,4-dichloro-3-methylphenoxy)-1'-[4-(methylsulfonyl)benzoyl]-1,4'-bipiperidine, 2 h at 37° C., mean of minimum 2 experiments, Cheng-Prussof correction of pIC50, read-out: CCR3 pKi (converted).
In the case of `O=C(CSc1ccc(C(=O)O)cc1)NC[C@H]1CN(Cc2ccc(Cl)c(Cl)c2)CCO1` [Example 2, (S)-4-[[4-[(3,4-dichlorophenyl)methyl]morpholin-2-yl]methylcarbamoylmethylsulfanyl]-benzoic acid], the Ki was 398 pM.
On the same count and under the same terms, with `O=C(CSc1cccc(C(=O)O)c1)NC[C@H]1CN(Cc2ccc(Cl)c(Cl)c2)CCO1` [Example 6, (S)-3-[[4-[(3,4-dichlorophenyl)methyl]morpholin-2-yl]methylcarbamoylmethylsulfanyl]-benzoic acid] the figure was 501 pM; with `O=C(CSc1ccc(C(=O)O)cc1C(F)(F)F)NC[C@H]1CN(Cc2ccc(Cl)c(Cl)c2)CCO1` [Example 8A, (S)-4-[[4-[(3,4-dichlorophenyl)methyl]morpholin-2-yl]methylcarbamoylmethylsulfanyl]-3-(trifluoromethyl)benzoic acid], 200 pM; with `O=C(CSc1ncc(C(=O)O)cc1Cl)NC[C@H]1CN(Cc2ccc(Cl)c(Cl)c2)CCO1` [Example 9A, (S)-5-chloro-6-[[4-[(3,4-dichlorophenyl)methyl]morpholin-2-yl]methylcarbamoylmethylsulfanyl]-nicotinic acid], 251 pM.
On the same count and under the same terms, under `Cc1c(CN2CCOC(CNC(=O)CSc3nc(N)c(C(=O)O)cc3F)C2)ccc(Cl)c1Cl` (centres unmarked) [Example 10A, 2-Amino-6-({[4-(3,4-dichloro-2-methyl-benzyl)-morpholin-2-ylmethyl]-carbamoyl}-methylsulfanyl)-5-fluoro-nicotinic Acid] stands 200 pM.
Same read-out and setting: with `Cc1cc(CN2CCO[C@@H](CNC(=O)CSc3ccc(C(=O)O)cc3F)C2)ccc1Cl` [Example 16A, 4-[[(2S)-4-[(4-chloro-3-methyl-phenyl)methyl]morpholin-2-yl]methylcarbamoylmethylsulfanyl]-3-fluoro-benzoic acid] the figure was 251 pM; with `Cc1cc(F)ccc1CN1CCO[C@@H](CNC(=O)CSc2ccc(C(=O)O)cc2F)C1` [Example 31A, 3-Fluoro-4-[[(2S)-4-[(4-fluoro-2-methyl-phenyl)methyl]morpholin-2-yl]methylcarbamoylmethylsulfanyl]benzoic Acid], 1000 pM.
